Key:
[1] = test system: C57BL/6J mice fed a high-fat diet; test: Glucose tolerance test; format: in vivo, mouse; conditions: 30 mg/kg/day, 6 h fast, glucose 2 g/kg i.p., n = 5; for Glucose tolerance test AUC, decrease compared with control, 4 weeks: 4 weeks of feeding; for Glucose tolerance test AUC, decrease compared with control, 11 weeks: 11 weeks of feeding
Experimental: Glucose tolerance tests were conducted after 4 and 11 weeks of feeding the experimental diets. Five mice from each treatment group were used in each glucose tolerance assay. Mice were fasted for 6 h prior to baseline blood glucose testing. Blood was collected from the mice by tail puncture, and glucose measurements were taken using a One Touch UltraMini glucometer (LifeScan, Inc., Milpitas, CA, USA). Mice were weighed and then given an i.p. injection of glucose equal to 2 g/kg body weight. Glucose readings were taken at 0 minutes (prior to glucose injection), and at 15 min, 30 min, 1 h, and 2 h after glucose injection.
Body weight, food intake, and metabolic measurements: data were analyzed using a one-way ANOVA in PROC GLM for single measures within animals (i.e., liver, plasma, and muscle metabolic measures) and a repeated-measures-in-time design ANOVA in PROC MIXED for repeated measures within animals (i.e., body weight, feed intake, and feed efficiency). The area-under-the-curve (AUC) for the glucose tolerance tests were calculated using the trapezoidal rule. Before statistical analysis, data were examined for variance homogeneity and normality. To achieve normality, liver, plasma, and muscle XN data and plasma insulin data were natural log-transformed. For statistical comparisons, the control group was compared with each XN metabolite group.

[2] = LC-MS/MS analysis of XN, DXN and TXN in mouse liver, plasma and muscle; format: in vivo; conditions: for Plasma concentration, fold greater than combined XN + IX / Muscle concentration, fold greater than combined XN + IX / Liver concentration, fold greater than combined XN + IX: HFD mice, 30 mg/kg/day in diet, 13 weeks; for Muscle concentration, fold greater than combined XN + IX: hind leg skeletal muscle; for Liver concentration, fold greater than combined XN + IX: steady state
Description: Nine-week old male C57BL/6J mice, obtained from The Jackson Laboratory (Bar Harbor, ME, USA), were housed individually in plastic cages under a 12–12-hr light-dark cycle. They were assigned randomly to four groups consisting of 12 mice each. One group (control) was fed a HFD (Dyets Inc., Bethlehem, PA, USA) containing 60%, 20% and 20% total calories from fat, carbohydrate and protein, respectively, and the other three groups were fed the HFD containing XN, DXN, or TXN. The test compounds were dissolved in an isotropic mixture of oleic acid:propylene glycol:Tween 80, 0.9:1:1 by weight (OPT) before incorporation into the HFD. The control diet contained an identical amount of OPT. All diets were prepared in pellet form by Dyets, Inc. (Bethlehem, PA, USA). The mouse diets were formulated to deliver a dose of 30 mg test compound per kg body weight per day. Food intake was measured three times per week and body weights were recorded weekly. At the end of 13 weeks of feeding, the mice were euthanized and blood, liver and skeletal muscle were collected for analyses. All animal protocols were approved by Institutional Animal Care and Use Committee (IACUC) at Oregon State University. Animal experiments were carried out in accordance with the relevant guidelines and regulations.
Liver and plasma from each mouse were subjected to enzymatic hydrolysis, extracted and analyzed using the paper strip extraction technique as previously described[36],[96]. For skeletal muscle, approximately 200 mg of frozen muscle tissue were placed into tubes containing ceramic beads (1.4 mm Ceramic, Bulk Beads, Fisher Scientific, Pittsburgh, PA, USA) and methanol:water (90:10; 500 μL/200 mg tissue) and homogenized using a Precellys 24 (PEQLAB Biotechnology GmbH, Germany). The tissue was homogenized for 3 × 30 sec at 6,500 rpm with 20 sec intervals and then centrifuged at 15,700 × g for 10 minutes and 100 μl of supernatant was used for the paper strip extraction as previously described[36],[96]. Concentrations of XN, DXN and TXN were calculated using an internal standard, 2′,4-dihydroxychalcone (DHC), with matrix-based calibration curves and Analyst Software (Analyst 1.5, AB Sciex, Foster City, CA, USA). Samples were analyzed by LC-MS/MS using an AB Sciex 4000 Q-trap triple quadrupole mass spectrometer using a source temperature of 600 °C and a needle voltage of −4500 V. The source, curtain and collision gases were all nitrogen. Analytes were separated by high performance liquid chromatography (HPLC) using a 2.1 × 50 mm Agilent Zorbax 300 SB – C8 3.5 µm column (Agilent, Santa Clara, CA, USA). The elution gradient was 25 to 60% solvent B (0.1% formic acid in acetonitrile) in solvent A (aqueous 0.1% formic acid) in 2.6 minutes using a flow rate of 0.5 ml/min after an initial 1.4 min at 25% solvent B. The gradient was then increased to 100% solvent B in 0.1 min and held at 100% B for 1.4 min, then dropped to 25% B in 0.25 minutes, followed by re-equilibration with 25% B for 9.25 minutes. SRM transitions for quantification were: m/z 353 → 119 for XN, m/z 353 → 233 for IX, m/z 339 → 219 for 8-PN, m/z 355 → 249 for DXN, m/z 357 → 251 for TXN, and m/z 239 → 119 for DHC.

[3] = test system: skeletal muscle AMPK (pAMPKα/total AMPKα); test: AMPK activation in skeletal muscle by Western blot; format: in vivo, mouse; conditions: HFD mice, 30 mg/kg/day, 13 weeks, vs control
Experimental: Approximately 150 mg of frozen liver and muscle tissues were homogenized in tubes containing RIPA buffer with protease and phosphatase inhibitors plus ceramic beads (1.4 mm Ceramic, Bulk Beads, Fisher Scientific, Pittsburgh, PA, USA) using a Precellys 24 (PEQLAB Biotechnology GmbH, Germany). Liver tissue was homogenized for 1 × 30 sec at 6,500 rpm whereas muscle was homogenized for 3 × 30 sec at 6,500 rpm with 20 sec intervals. The homogenates were centrifuged at 15,700 × g for 10 minutes and aliquots (50 µg of protein) of the supernatant (lysate) were separated by SDS-PAGE using 4–15% MP TGX Gels (Bio-Rad # 4561083) and blotted onto nitrocellulose membranes. Membranes were blocked with 5% nonfat milk for 2 h and incubated with antibodies against pAMPK (Phospho-AMPKα (Thr172) Antibody, cat. no. #2531 Cell Signaling Technology, Danvers, MA, USA), AMPK (AMPKα Antibody, cat. no. #2532 Cell Signaling Technology, Danvers, MA, USA), or β-actin (Santa Cruz Biotechnology) for 1 h or overnight. After a second reaction with secondary antibodies (horseradish peroxidase-conjugated IgG goat antirabbit or goat antimouse antibodies), the protein bands on the nitrocellulose membranes were visualized by enhanced chemiluminescence substrate on a Biorad ChemiDocTM MP Imaging System (BioRad Laboratories Inc, Hercules, CA, USA). Band intensities were quantified by densitometry using Image J software.

human LDL = test system: human LDL; design: method as in PMID 14565769; conditions: cited from earlier work
HFD-fed C57BL/6 J mice = test system: HFD-fed C57BL/6 J mice; design: method as in PMID 26976708; conditions: oral, 60 mg/kg/day; cited from earlier work
mice = conditions: cited from earlier work

Row | SMILES | Glucose tolerance test AUC, decrease compared with control, 4 weeks [1] [%] | Glucose tolerance test AUC, decrease compared with control, 11 weeks [1] [%] | Plasma concentration, fold greater than combined XN + IX [2] [fold] | Muscle concentration, fold greater than combined XN + IX [2] [fold] | Liver concentration, fold greater than combined XN + IX [2] [fold] | Decrease of skeletal muscle AMPK activation (pAMPK/AMPK) [3] [%] | Inhibition of SIN-1-induced lipid peroxidation of human LDL (human LDL) | concentration at 13 weeks ([2]; male, C57BL/6J, mouse, liver, oral dosing at 30 mg/kg/day, read-out: Liver concentration (highest measured)) [µM] | Liver tissue concentration (highest measured) ([2]; mouse dose of 30 mg/kg/day) [nmol/g] | HOMA-IR, change vs vehicle/HFD controls (HFD-fed C57BL/6 J mice) [%] | Interleukin-6 (IL-6), change vs vehicle/HFD controls (HFD-fed C57BL/6 J mice) [%] | Leptin, change vs vehicle/HFD controls (HFD-fed C57BL/6 J mice) [%] | Plasma LDL-c, change vs vehicle/HFD controls (HFD-fed C57BL/6 J mice) [%] | Plasma PCSK9, change vs vehicle/HFD controls (HFD-fed C57BL/6 J mice) [%] | Dose with no detectable toxicity (mice)
1 | COc1cc(O)c(CC=C(C)C)c(O)c1C(=O)CCc1ccc(O)cc1 [DXN, α,β-Dihydroxanthohumol] | 46 | 35 | 7 | 7 | 6 | 22 | – | – | – | – | – | – | – | – | –
2 | COc1cc(O)c(CCC(C)C)c(O)c1C(=O)CCc1ccc(O)cc1 [TXN, tetrahydroxanthohumol] | 61 | 45 | 10 | 5 | 12 | 25 | little or negligible protection | 5 | 5 | – | – | – | – | – | –
3 | COc1cc(O)c(CC=C(C)C)c(O)c1C(=O)/C=C/c1ccc(O)cc1 [XN, 3′-[3,3-dimethylallyl]-2′,4′,4-trihydroxy-6′-methoxychalcone] | 43 | 12 | – | – | – | 19 | effectively inhibits | – | – | −52 | −78 | −41 | −80 | −44 | at least 1,000 mg/kg
